{"source": "paper PMC10117764", "about": "“The roles of serine hydrolases and serum albumin in alisol B 23-acetate hydrolysis in humans” (Frontiers in Pharmacology, 2023)", "key": {"[1]": {"assay": "Hydrolytic half-life of AB23A in human plasma", "assay_type": "in vitro ADME", "details": "human plasma (25% diluted); 25% dilution human plasma, PBS pH 7.4; read-out: t1/2 (hydrolytic/metabolic half-life)", "description": "(§1) The hydrolytic half-lives (t1/2) of AB23A in human plasma and different human tissue preparations were carried out according to the procedure of in vitro metabolic stability studies ([Ge et al., 2013]). The incubation mixture (1,000 μL) consisted of PBS (pH 7.4), enzyme sources (HLMs/HIMs/human plasma) and AB23A. 25% diluted human plasma was used, the protein concentrations of other tissue microsomes were 0.1 mg/mL. The 100 μL incubation mixture was moved to another containing ice-cold acetonitrile tube at different time points (0, 5, 15, 30, 45, 60, 90, 120 min). All samples were centrifuged for 30 min at 20,000 g 4°C and took the supernatants for LC-UV analysis.\n(§2) The incubation conditions were as follows: the classic incubation system included 100 mM potassium phosphate buffer (PBS, pH 7.4), enzyme sources, and AB23A. In all incubations, PBS and enzyme sources were pre-incubation at 37 °C for 3 min and the reaction was started by adding AB23A (the organic solvent content at most 1%). After reacting 1 h, ice-cold acetonitrile was added to terminate the reaction and precipitate proteins. The samples were centrifuged for 30 min at 20000 × g, 4 °C, and the supernatants were taken for further LC-UV analysis."}, "hSA": {"molecular_target": "T1, hSA (Homo sapiens, UniProt P02768)", "T1 construct": "purchased Sigma-Aldrich Lot#SLCC9268", "T1 sequence (P02768 25-609)": "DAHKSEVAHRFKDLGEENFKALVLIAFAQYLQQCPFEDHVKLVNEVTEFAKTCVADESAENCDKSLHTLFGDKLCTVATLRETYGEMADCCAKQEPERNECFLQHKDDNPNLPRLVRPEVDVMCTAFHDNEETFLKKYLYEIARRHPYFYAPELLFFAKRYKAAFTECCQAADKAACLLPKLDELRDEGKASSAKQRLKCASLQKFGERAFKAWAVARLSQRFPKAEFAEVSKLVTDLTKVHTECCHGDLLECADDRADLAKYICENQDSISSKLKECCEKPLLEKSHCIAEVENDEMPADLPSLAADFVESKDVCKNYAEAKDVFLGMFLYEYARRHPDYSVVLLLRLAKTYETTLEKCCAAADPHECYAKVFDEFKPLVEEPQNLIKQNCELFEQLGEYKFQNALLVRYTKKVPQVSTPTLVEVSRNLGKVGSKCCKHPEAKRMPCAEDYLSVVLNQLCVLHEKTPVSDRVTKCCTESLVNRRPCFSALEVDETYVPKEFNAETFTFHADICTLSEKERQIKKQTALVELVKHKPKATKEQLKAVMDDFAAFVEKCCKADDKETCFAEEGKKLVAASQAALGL", "assay": "Reaction phenotyping assay of AB23A hydrolysis, hSA", "assay_type": "in vitro ADME", "details": "hSA 500 μg/mL (Figure 3), AB23A 20 μM, 60 min, pH 7.4 at 37°C", "description": "The hydrolytic rates of AB23A in different human recombinant enzymes (hCES1A, hCES2A, hPL, hIAH1, hNotum, hAchE, hBchE, hSA, hCTSA, hMAGL) were assayed. […] After incubation for 1 h at 37°C, ice-cold acetonitrile was added to terminate the reaction and precipitate proteins. The supernatants by centrifuging were used to quantify the formation rates of AB by LC-UV analysis. The detection wavelength of AB was 196 nm."}, "[2]": {"assay": "Kinetic analysis of AB23A hydrolysis in HLMs", "assay_type": "in vitro ADME, human", "description": "(§3) The enzymatic kinetics of AB23A hydrolysis in different tissue preparations (HLMs, HIMs, human plasma) and human recombinant enzymes (hCES1A, hCES2A, hSA, hBchE) were analyzed. The incubation system (200 μL) consisted of PBS, each tested enzyme, and AB23A (ranging from 0 to 1,000 μM). After incubating for 1 h, the supernatants were then used for LC-UV analysis. The kinetic parameters of AB23A hydrolysis were fitted by the following Michaelis−Menten Eq. 1 ([Zhang et al., 2022]). V=(Vmax×[S])⁄(Km+[S]) (1) Here, K m is the Michaelis constant of AB23A hydrolysis, V max is the maximum velocity of AB23A hydrolysis, V max /K m is used to calculate the intrinsic clearance (CL int )."}, "hCES1A [3]": {"molecular_target": "T2, hCES1A (Homo sapiens, UniProt P23141)", "T2 construct": "10xHis; made in house; host or cells: HEK293-F cells, pTT5 vector, purified from conditioned medium", "T2 sequence (P23141 18-563)": "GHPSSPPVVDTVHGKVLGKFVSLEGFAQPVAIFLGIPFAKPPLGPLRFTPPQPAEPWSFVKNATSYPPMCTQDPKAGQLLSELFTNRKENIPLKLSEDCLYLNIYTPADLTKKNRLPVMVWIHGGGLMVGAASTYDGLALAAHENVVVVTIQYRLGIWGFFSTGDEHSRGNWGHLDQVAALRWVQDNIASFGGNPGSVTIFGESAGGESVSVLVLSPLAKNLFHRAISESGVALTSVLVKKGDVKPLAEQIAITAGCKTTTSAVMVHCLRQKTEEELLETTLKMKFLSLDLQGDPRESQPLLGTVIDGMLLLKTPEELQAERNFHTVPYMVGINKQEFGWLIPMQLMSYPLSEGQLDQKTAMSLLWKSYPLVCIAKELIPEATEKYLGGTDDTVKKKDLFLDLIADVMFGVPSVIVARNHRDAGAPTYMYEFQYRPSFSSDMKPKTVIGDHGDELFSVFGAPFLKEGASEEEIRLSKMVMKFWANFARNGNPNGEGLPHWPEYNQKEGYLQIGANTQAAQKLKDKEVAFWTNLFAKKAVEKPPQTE", "assay": "Reaction phenotyping assay of AB23A hydrolysis, hCES1A", "assay_type": "in vitro ADME", "details": "hCES1A 5 μg/mL, AB23A 20 μM, 60 min, pH 7.4 at 37°C", "description": "The hydrolytic rates of AB23A in different human recombinant enzymes (hCES1A, hCES2A, hPL, hIAH1, hNotum, hAchE, hBchE, hSA, hCTSA, hMAGL) were assayed. The incubation system included PBS, each tested enzyme (5 μg/mL, final concentration), and AB23A (20 μM). After incubation for 1 h at 37°C, ice-cold acetonitrile was added to terminate the reaction and precipitate proteins. The supernatants by centrifuging were used to quantify the formation rates of AB by LC-UV analysis. The detection wavelength of AB was 196 nm."}, "hCES2A": {"molecular_target": "T3, hCES2A (Homo sapiens, UniProt O00748)", "T3 construct": "10xHis; made in house; host or cells: HEK293-F cells, pTT5 vector, purified from conditioned medium", "T3 sequence (O00748 27-559)": "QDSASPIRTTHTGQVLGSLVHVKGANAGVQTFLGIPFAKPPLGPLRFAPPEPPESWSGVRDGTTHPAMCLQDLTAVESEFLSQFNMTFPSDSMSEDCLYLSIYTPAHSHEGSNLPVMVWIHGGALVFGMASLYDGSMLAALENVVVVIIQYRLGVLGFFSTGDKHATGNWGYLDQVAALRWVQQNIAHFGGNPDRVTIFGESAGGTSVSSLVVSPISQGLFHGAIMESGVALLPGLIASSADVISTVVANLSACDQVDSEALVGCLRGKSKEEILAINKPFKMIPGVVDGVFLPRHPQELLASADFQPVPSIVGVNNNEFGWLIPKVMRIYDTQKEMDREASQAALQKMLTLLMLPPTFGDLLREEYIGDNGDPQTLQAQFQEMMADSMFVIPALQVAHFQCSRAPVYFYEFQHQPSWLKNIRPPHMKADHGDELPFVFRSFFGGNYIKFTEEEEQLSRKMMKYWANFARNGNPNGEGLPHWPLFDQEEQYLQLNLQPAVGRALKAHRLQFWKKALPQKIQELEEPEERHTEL", "assay": "Kinetic analysis of AB23A hydrolysis in hCES2A", "assay_type": "in vitro ADME", "details": "1 h incubation", "description": "as §3"}, "hCES1A [4]": {"molecular_target": "T2, hCES1A", "assay": "Kinetic analysis of AB23A hydrolysis in hCES1A", "assay_type": "in vitro ADME", "details": "1 h incubation", "description": "as §3"}, "[5]": {"assay": "Hydrolytic half-life of AB23A in human intestine microsomes", "assay_type": "in vitro ADME", "details": "human intestine microsomes (HIMs), HIMs 0.1 mg/mL, PBS pH 7.4, read-out: t1/2 (hydrolytic/metabolic half-life)", "description": "as §1, §2"}}, "note": "Several values for one entry are separate records, joined by “and”; a condition that tells them apart may be missing. Equal entries are not always repeated."}
{"smiles": "CC(=O)O[C@H](C[C@@H](C)C1=C2C[C@H](O)C3[C@@]4(C)CCC(=O)C(C)(C)C4CC[C@]3(C)[C@@]2(C)CC1)[C@H]1OC1(C)C", "note": "(some centres unmarked) [AB23A, Alisol B 23-acetate]", "values": [{"measurement": "half-life", "setting": "[1]", "result": "115 ± 0.2", "unit": "min"}, {"measurement": "Hydrolytic rate (formation of AB) in reaction phenotyping", "setting": "hSA", "result": "also catalyzed this hydrolytic reaction"}, {"measurement": "K m of AB23A hydrolysis", "setting": "[2]", "result": "41.18 ± 3.46", "unit": "µM"}, {"measurement": "V max of AB23A hydrolysis", "setting": "[2]", "result": "4.77 ± 0.08 nmol/min/mg protein and 4.77 ± 0.08 ^a nmol/min/mg protein"}, {"measurement": "Hydrolytic rate (formation of AB) in reaction phenotyping", "setting": "hCES1A [3]", "result": "also catalyzed this hydrolytic reaction"}, {"measurement": "K m of AB23A hydrolysis", "setting": "hCES2A", "result": "58.96 ± 2.41", "unit": "µM"}, {"measurement": "K m of AB23A hydrolysis", "setting": "hCES1A [4]", "result": "190.80 ± 31.41", "unit": "µM"}, {"measurement": "half-life", "setting": "[5]", "result": "68 ± 0.01", "unit": "min"}]}
